Measured values published in BigSolDB 2.1.

CC1(C)[C@H](C(=O)O)[C@@H]1/C=C(\Cl)C(F)(F)F (racemic)
solubility (mole fraction)
Conditions	283.15 K	288.15 K	293.15 K	298.15 K	303.15 K	308.15 K	313.15 K	318.15 K	323.15 K
in cyclohexane	0.00261	0.00304	0.00447	0.00592	0.00821	0.0119	0.0175	0.0258	0.0384
in ethanol	0.077	0.0817	0.0944	0.106	0.121	0.143	0.168	0.195	0.228
in ethyl acetate	0.0818	0.0938	0.109	0.123	0.141	0.165	0.186	0.217	0.243
in isobutanol	0.0701	0.0843	0.099	0.116	0.13	0.147	0.168	0.2	0.233
in methanol	0.058	0.0664	0.0722	0.0813	0.098	0.119	0.139	0.166	0.191
in methyl acetate	0.0727	0.0848	0.0976	0.114	0.129	0.151	0.171	0.2	0.226
in n-butanol	0.0748	0.0848	0.0964	0.11	0.129	0.149	0.167	0.203	0.239
in n-butyl acetate	0.089	0.102	0.119	0.135	0.153	0.175	0.195	0.223	0.247
in n-propanol	0.0753	0.0829	0.0944	0.109	0.13	0.142	0.173	0.213	0.252
in sec-butanol	0.0987	0.111	0.138	0.161	0.179	0.204	0.231	0.265	0.285
in tert-butanol	0.13	0.144	0.169	0.197	0.224	0.247	0.271	0.3	0.331
